Assay results as given in the NIST ThermoML archive (doi:10.1016/j.jct.2008.12.005).
Numbers after ± are expanded uncertainties.

Test: activity coefficient (dimensionless); of the first substance listed, at infinite dilution; xn = mol fraction of the nth substance listed
Conditions: 101 kPa, Liquid, Chromatography, x1 = 0

SMILES | activity coefficient (298.15 K) | activity coefficient (308.15 K) | activity coefficient (318.15 K) | activity coefficient (328.15 K) | activity coefficient (338.15 K) | activity coefficient (348.15 K) | activity coefficient (358.15 K) | activity coefficient (368.15 K)
CCCCCCCCCC [decane] + CC[S+](CC)CC.O=S(=O)([N-]S(=O)(=O)C(F)(F)F)C(F)(F)F | 131 ± 9 | 114 ± 8 | 101 ± 7 | 89.6 ± 6.1 | 80 ± 5.5 | 72.5 ± 5 | 65.8 ± 4.5 | 59.7 ± 4.1
Cc1ccc(C)cc1 [1,4-dimethylbenzene] + CC[S+](CC)CC.O=S(=O)([N-]S(=O)(=O)C(F)(F)F)C(F)(F)F | – | 2.27 ± 0.15 | 2.3 ± 0.16 | 2.32 ± 0.16 | 2.34 ± 0.16 | 2.36 ± 0.16 | 2.38 ± 0.16 | 2.4 ± 0.16
Cc1ccccc1C [1,2-dimethylbenzene] + CC[S+](CC)CC.O=S(=O)([N-]S(=O)(=O)C(F)(F)F)C(F)(F)F | – | 2.05 ± 0.14 | 2.07 ± 0.14 | 2.09 ± 0.14 | 2.1 ± 0.14 | 2.12 ± 0.14 | 2.13 ± 0.14 | 2.15 ± 0.15
O [water] + CC[S+](CC)CC.O=S(=O)([N-]S(=O)(=O)C(F)(F)F)C(F)(F)F | – | 3.91 ± 0.27 | 3.39 ± 0.23 | 2.97 ± 0.2 | 2.63 ± 0.18 | 2.33 ± 0.16 | 2.08 ± 0.14 | 1.88 ± 0.13
C#CCCC [1-pentyne] + CC[S+](CC)CC.O=S(=O)([N-]S(=O)(=O)C(F)(F)F)C(F)(F)F | 2.52 ± 0.17 | 2.52 ± 0.17 | 2.53 ± 0.17 | 2.54 ± 0.17 | 2.54 ± 0.17 | 2.55 ± 0.17 | 2.55 ± 0.17 | 2.55 ± 0.17
CCCCCCCCC [nonane] + CC[S+](CC)CC.O=S(=O)([N-]S(=O)(=O)C(F)(F)F)C(F)(F)F | 87.2 ± 6 | 77.6 ± 5.3 | 68.6 ± 4.7 | 61.8 ± 4.2 | 55.5 ± 3.8 | 50.5 ± 3.5 | 46 ± 3.1 | 42.4 ± 2.9
c1ccsc1 [thiophene] + CC[S+](CC)CC.O=S(=O)([N-]S(=O)(=O)C(F)(F)F)C(F)(F)F | 0.926 ± 0.059 | 0.935 ± 0.059 | 0.943 ± 0.059 | 0.951 ± 0.06 | 0.958 ± 0.06 | 0.965 ± 0.061 | 0.971 ± 0.061 | 0.977 ± 0.061
C#CCCCC [1-hexyne] + CC[S+](CC)CC.O=S(=O)([N-]S(=O)(=O)C(F)(F)F)C(F)(F)F | 3.63 ± 0.25 | 3.62 ± 0.25 | 3.6 ± 0.25 | 3.58 ± 0.24 | 3.57 ± 0.24 | 3.56 ± 0.24 | 3.54 ± 0.24 | 3.53 ± 0.24
C#CCCCCCC [1-octyne] + CC[S+](CC)CC.O=S(=O)([N-]S(=O)(=O)C(F)(F)F)C(F)(F)F | 7.87 ± 0.54 | 7.68 ± 0.52 | 7.51 ± 0.51 | 7.35 ± 0.5 | 7.2 ± 0.49 | 7.06 ± 0.48 | 6.93 ± 0.47 | 6.81 ± 0.46
C1CCCCCC1 [cycloheptane] + CC[S+](CC)CC.O=S(=O)([N-]S(=O)(=O)C(F)(F)F)C(F)(F)F | 21.7 ± 1.5 | 19.8 ± 1.4 | 18 ± 1.2 | 16.5 ± 1.1 | 15.2 ± 1 | 14.1 ± 1 | 13.1 ± 0.9 | 12.2 ± 0.8
Cc1cccc(C)c1 [1,3-dimethylbenzene] + CC[S+](CC)CC.O=S(=O)([N-]S(=O)(=O)C(F)(F)F)C(F)(F)F | – | 2.29 ± 0.16 | 2.31 ± 0.16 | 2.33 ± 0.16 | 2.34 ± 0.16 | 2.36 ± 0.16 | 2.38 ± 0.16 | 2.39 ± 0.16
C=CCCCCC [1-heptene] + CC[S+](CC)CC.O=S(=O)([N-]S(=O)(=O)C(F)(F)F)C(F)(F)F | 18.3 ± 1.3 | 17.2 ± 1.2 | 16.1 ± 1.1 | 15.2 ± 1 | 14.4 ± 1 | 13.7 ± 0.9 | 12.9 ± 0.9 | 12.4 ± 0.8
